Experimental data taken from patent US8685456B2, “Topical compositions comprising nanoparticles of an isoflavone” (DSM IP Assets B.V., priority 2005, dated 2014).

Key:
[1] = Genistein particle size by laser diffraction technique (Mastersizer 2000); type: physicochemical
[2] = “swing” test (changing temperature test, 5° C./43° C.), microscopical examination; type: physicochemical; settings: O/W emulsions with genistein of example 7 after dry grinding in a Jet mill only (FIG. 7), 0.3%, 0.5% and 0.1% (1.0% elsewhere in the source); ten sequences 5° C./43° C., 24 hours each
Protocol: To further illustrate the benefits obtained with nanoparticles of genistein versus conventional crystalline genistein, the cosmetic formulations described above (#3 and #4) were submitted to a very challenging stability test: The formulations were stored at a temperature varying from 5° C. to 43° C. every 24 hours during 3 weeks. […] (cycles of 24 hours at each temperature).
To force the crystallization in a disperse system, a test was used in which the temperature is changed over a self-defined timeframe and in self-defined sequences. The test is called “swing” test (changing temperature test). The purpose of this test is to dissolve small particles at the higher temperature and to force re-crystallization at lower temperature. […] The following formulations were used for the “swing” test: […]
To force this crystallization the “swing” test was used and as minimum and maximum temperatures 5° C. and 43° C. were chosen. Each temperature was held over a period of 24 hours. The duration of this test was at first set to 20 days, which means that the samples run through a cooling/heating sequence (=1 sequence) 10 times.
FIGS. 5 to 7 show the results of the “swing” test. […] The following genistein samples and concentrations were employed and the emulsions were measured immediately after preparation and after subjecting the samples to ten sequences of the “swing” test: […]

[3] = Example 1, after homogenization (42 passes) and spray-drying, re-dispersed in water
[4] = Example 1, after homogenization (42 passes, 1500 bar) with starch sodium octenyl succinate, aqueous suspension
[5] = Example 1, genistein powder before homogenization
[6] = Example 2, after homogenization (40 passes, 1500 bar) in water, no carrier
[7] = Example 2, after homogenization (42 passes) and spray-drying, re-dispersed in water
[8] = Example 2, after homogenization (42 passes), starch sodium octenyl succinate added after 40th pass
[9] = Example 2, genistein powder before homogenization
[10] = Example 3, after homogenization (40 passes, 1500 bar) in water, no carrier
[11] = Example 3, after homogenization (42 passes) and spray-drying, re-dispersed in water
[12] = Example 3, after homogenization (42 passes), starch sodium octenyl succinate added after 40th pass
[13] = Example 3, genistein powder before homogenization
[14] = Example 4, after homogenization (20 passes, 700 bar) in water, no carrier
[15] = Example 4, genistein powder before homogenization
[16] = Example 5, Table XI, headed after homogenization (42 passes) and spray-drying, maltodextrin added after 40th pass, suspension before drying
[17] = Example 5, Table XII, after homogenization (42 passes) and spray-drying, maltodextrin carrier, re-dispersed in water
[18] = Example 5, after homogenization (20 passes) as headed, text: 40 times, 1500 bar, in water, no carrier
[19] = Example 5, genistein powder before homogenization
[20] = Example 6, after homogenization (11 passages) in agitated bead mill with starch sodium octenyl succinate
[21] = Example 6, genistein powder before homogenization
[22] = Example 7, Table XIV, before milling and homogenization
[23] = Example 7, Table XV, before milling and homogenization
[24] = Example 7, after milling (Jet mill) and homogenization (12 times, 700 bar) with starch sodium octenyl succinate
[25] = Example 7, after milling, homogenization and spray drying

With `O=c1c(-c2ccc(O)cc2)coc2cc(O)cc(O)c12` [Genistein, 4′,5,7-trihydroxyisoflavone] the “Average particle size D[3, 2]” value [1, 3] was 0.14 microns, the “Average particle size D[4, 3]” value [1, 3] was 0.83 microns and the “D (v, 0.1)” value [1, 3] was 0.07 microns. The “D (v, 0.5)” value [1, 3] was 0.16 microns, the “D (v, 0.9)” value [1, 3] was 2.86 microns and the “Average particle size D[3, 2]” value [1, 4] was 0.15 microns. The “Average particle size D[4, 3]” value [1, 4] was 0.97 microns, the “D (v, 0.1)” value [1, 4] was 0.07 microns and the “D (v, 0.5)” value [1, 4] was 0.17 microns. The “D (v, 0.9)” value [1, 4] was 3.65 microns, the “Average particle size D[3, 2]” value [1, 5] was 23.1 microns and the “Average particle size D[4, 3]” value [1, 5] was 48.5 microns. For the same compound, the “D (v, 0.1)” value [1, 5] was 17.1 microns, the “D (v, 0.5)” value [1, 5] was 41.9 microns and the “D (v, 0.9)” value [1, 5] was 91.0 microns. For the same compound, the “Average particle size D[3, 2]” value [1, 6] was 0.14 microns, the “Average particle size D[4, 3]” value [1, 6] was 0.76 microns and the “D (v, 0.1)” value [1, 6] was 0.07 microns. The “D (v, 0.5)” value [1, 6] was 0.16 microns, the “D (v, 0.9)” value [1, 6] was 2.42 microns and the “Average particle size D[3, 2]” value [1, 7] was 0.14 microns. For the same compound, the “Average particle size D[4, 3]” value [1, 7] was 0.55 microns, the “D (v, 0.1)” value [1, 7] was 0.07 microns and the “D (v, 0.5)” value [1, 7] was 0.15 microns. The “D (v, 0.9)” value [1, 7] was 1.14 microns, the “Average particle size D[3, 2]” value [1, 8] was 0.14 microns and the “Average particle size D[4, 3]” value [1, 8] was 0.41 microns. The “D (v, 0.1)” value [1, 8] was 0.07 microns, the “D (v, 0.5)” value [1, 8] was 0.16 microns and the “D (v, 0.9)” value [1, 8] was 0.93 microns. The “Average particle size D[3, 2]” value [1, 9] was 23.1 microns, the “Average particle size D[4, 3]” value [1, 9] was 48.5 microns and the “D (v, 0.1)” value [1, 9] was 17.1 microns. The “D (v, 0.5)” value [1, 9] was 41.9 microns, the “D (v, 0.9)” value [1, 9] was 91.0 microns and the “Average particle size D[3, 2]” value [1, 10] was 0.14 microns. The “Average particle size D[4, 3]” value [1, 10] was 0.76 microns, the “D (v, 0.1)” value [1, 10] was 0.07 microns and the “D (v, 0.5)” value [1, 10] was 0.16 microns. The “D (v, 0.9)” value [1, 10] was 2.00 microns, the “Average particle size D[4, 3]” value [1, 11] was 0.43 microns and the “D (v, 0.1)” value [1, 11] was 0.07 microns. For the same compound, the “D (v, 0.5)” value [1, 11] was 0.16 microns, the “D (v, 0.9)” value [1, 11] was 0.97 microns and the “Average particle size D[3, 2]” value [1, 12] was 0.14 microns. For the same compound, the “Average particle size D[4, 3]” value [1, 12] was 0.40 microns, the “D (v, 0.1)” value [1, 12] was 0.07 microns and the “D (v, 0.5)” value [1, 12] was 0.16 microns. The “D (v, 0.9)” value [1, 12] was 0.91 microns, the “Average particle size D[3, 2]” value [1, 13] was 23.1 microns and the “Average particle size D[4, 3]” value [1, 13] was 48.5 microns. The “D (v, 0.1)” value [1, 13] was 17.1 microns, the “D (v, 0.5)” value [1, 13] was 41.9 microns and the “D (v, 0.9)” value [1, 13] was 91.0 microns. For the same compound, the “Average particle size D[3, 2]” value [1, 14] was 0.13 microns, the “Average particle size D[4, 3]” value [1, 14] was 0.83 microns and the “D (v, 0.1)” value [1, 14] was 0.07 microns. The “D (v, 0.5)” value [1, 14] was 0.15 microns, the “D (v, 0.9)” value [1, 14] was 2.62 microns and the “Average particle size D[3, 2]” value [1, 15] was 23.1 microns. For the same compound, the “Average particle size D[4, 3]” value [1, 15] was 48.5 microns, the “D (v, 0.1)” value [1, 15] was 17.1 microns and the “D (v, 0.5)” value [1, 15] was 41.9 microns. For the same compound, the “D (v, 0.9)” value [1, 15] was 91.0 microns, the “Average particle size D[3, 2]” value [1, 16] was 0.14 microns and the “Average particle size D[4, 3]” value [1, 16] was 0.41 microns. The “D (v, 0.1)” value [1, 16] was 0.07 microns, the “D (v, 0.5)” value [1, 16] was 0.16 microns and the “D (v, 0.9)” value [1, 16] was 0.93 microns. The “Average particle size D[3, 2]” value [1, 17] was 0.13 microns, the “Average particle size D[4, 3]” value [1, 17] was 0.41 microns and the “D (v, 0.1)” value [1, 17] was 0.07 microns. For the same compound, the “D (v, 0.5)” value [1, 17] was 0.15 microns, the “D (v, 0.9)” value [1, 17] was 0.93 microns and the “Average particle size D[2, 3]” value [1, 18] was 0.14 microns. For the same compound, the “Average particle size D[4, 3]” value [1, 18] was 0.42 microns, the “D (v, 0.1)” value [1, 18] was 0.07 microns and the “D (v, 0.5)” value [1, 18] was 0.16 microns. For the same compound, the “D (v, 0.9)” value [1, 18] was 0.92 microns, the “Average particle size D[2, 3]” value [1, 19] was 23.1 microns and the “Average particle size D[4, 3]” value [1, 19] was 48.5 microns. For the same compound, the “D (v, 0.1)” value [1, 19] was 17.8 microns, the “D (v, 0.5)” value [1, 19] was 41.4 microns and the “D (v, 0.9)” value [1, 19] was 90.2 microns. For the same compound, the “Average particle size D[4, 3]” value [1, 20] was 0.23 microns, the “D (v, 0.1)” value [1, 20] was 0.07 microns and the “D (v, 0.5)” value [1, 20] was 0.16 microns. For the same compound, the “D (v, 0.9)” value [1, 20] was 0.45 microns, the “Average particle size D[4, 3]” value [1, 21] was 48.5 microns and the “D (v, 0.1)” value [1, 21] was 17.8 microns. The “D (v, 0.5)” value [1, 21] was 41.4 microns, the “D (v, 0.9)” value [1, 21] was 90.2 microns and the “Average particle size D[4, 3]” value [1, 22] was 48.5 microns. For the same compound, the “D (v, 0.1)” value [1, 22] was 17.8 microns, the “D (v, 0.5)” value [1, 22] was 41.4 microns and the “D (v, 0.9)” value [1, 22] was 90.2 microns. The “Average particle size D[4, 3]” value [1, 23] was 48.5 microns, the “D (v, 0.1)” value [1, 23] was 17.8 microns and the “D (v, 0.5)” value [1, 23] was 41.4 microns. For the same compound, the “D (v, 0.9)” value [1, 23] was 90.2 microns, the “Average particle size D[4, 3]” value [1, 24] was 0.53 microns and the “D (v, 0.1)” value [1, 24] was 0.07 microns. For the same compound, the “D (v, 0.5)” value [1, 24] was 0.18 microns, the “D (v, 0.9)” value [1, 24] was 1.38 microns and the “Average particle size D[4, 3]” value [1, 25] was 0.65 microns. The “D (v, 0.1)” value [1, 25] was 0.08 microns, the “D (v, 0.5)” value [1, 25] was 0.19 microns and the “D (v, 0.9)” value [1, 25] was 1.84 microns. The “Average particle size D[2, 3]” value ([1]; after homogenization (42 passes) and spray-drying, re-dispersed in water) was 0.14 microns and the “Change of particle size during the “swing” test” value [2] was “significantly changed”.
